From BindingDB's records for doi:10.1158/0008-5472.can-03-2847 (The University of Birmingham, 2004) come the findings set out here.

Structures are written as SMILES.

The term Ki denotes a measure of affinity in units of concentration, obtained from inhibition or displacement. Low values mean tighter binding, high ones weaker binding.

Assay [1] deals with T1, Aldo-keto reductase family 1 member C3 (Homo sapiens, UniProt P42330).
T1 sequence (P42330 whole entry): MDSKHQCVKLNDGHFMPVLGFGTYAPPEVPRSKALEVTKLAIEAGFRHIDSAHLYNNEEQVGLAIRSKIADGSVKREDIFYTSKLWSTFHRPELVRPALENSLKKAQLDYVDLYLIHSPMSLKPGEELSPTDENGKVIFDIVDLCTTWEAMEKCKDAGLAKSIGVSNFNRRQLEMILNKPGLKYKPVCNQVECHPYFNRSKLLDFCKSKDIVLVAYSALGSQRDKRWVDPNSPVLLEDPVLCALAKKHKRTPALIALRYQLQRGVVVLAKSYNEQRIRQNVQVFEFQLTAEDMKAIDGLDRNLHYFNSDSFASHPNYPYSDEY
Kind of assay: 3alpha-Androstanediol Oxidation Inhibition Assay. As to conditions: pH 7; 30 °C.
Method: A fluorescence assay was used to determine the kinetic constants for the oxidation of 3alpha-androstanediol. The fluorescence emission of NADPH at 450 nm (5-nm slit width) with excitation at 340 nm (15-nm slit width) was monitored. A standard curve was constructed by monitoring fluorescence changes with incremental additions of NADPH. […] The type of inhibition and the inhibition constants were calculated using the Leonora program. All reactions were initiated by the addition of enzyme.

Assay [2] has as its target T1, Aldo-keto reductase family 1 member C3. Nature of the assay: Androsterone Reduction Inhibition Assay. As to conditions: pH 7; 30 °C.
Method: Enzyme activity was measured in the reductive direction against varying concentrations of androsterone. Initial velocities were measured by observing the rate of change of absorbance of pyridine nucleotide at 340 nm. Calculation of kcat and Km values used the Leonora program, yielding estimates of the kinetic constants. […] The type of inhibition and the inhibition constants were calculated using the Leonora program. All reactions were initiated by the addition of enzyme.

Regarding `O=C(O)c1ccccc1Nc1cccc(C(F)(F)F)c1` [2-{[3-(trifluoromethyl)phenyl]amino}benzoic acid], the inhibition constant Ki worked out at 140 nM in assay [1] and 3100 nM in assay [2].
